According to ChEMBL document CHEMBL3885861, “Open TG-GATES”:

Species: Rattus norvegicus
Test: Open TG-GATES - Regimen: Single
Assay type: toxicity, organism-based, Sprague-Dawley
Parameters: regimen Single, gender Male, age 6 weeks
Conditions: in vivo, po, route gavage; for APTT / Bas / Eos / Fbg / Hb / Ht / Lym / MCH / MCHC / MCV / Mono / Neu / PT / Plat / RBC / Ret / WBC: tissue Blood; for KIDNEY_L / KIDNEY_R / KIDNEY_TOTAL: tissue Kidney; for LIVER: tissue Liver; for A/G / ALP / ALT / AST / BUN / CRE / Ca / Cl / DBIL / GLC / IP / K / LDH / Na / PL / RALB / TBIL / TC / TG / TP / gamma-GTP: tissue Plasma
[1] = 120 mg/kg, 3 h, dose level Middle
[2] = 120 mg/kg, 6 h, dose level Middle
[3] = 120 mg/kg, 9 h, dose level Middle
[4] = 120 mg/kg, 24 h, dose level Middle
[5] = 400 mg/kg, 3 h, dose level High
[6] = 400 mg/kg, 6 h, dose level High
[7] = 400 mg/kg, 9 h, dose level High
[8] = 400 mg/kg, 24 h, dose level High

Cc1cccc(C)c1OCC(C)N (centres undefined) [MEXILETINE]
TERMINAL_BW [1]: 218.1 g
APTT [1]: 21.8 s
Bas [1]: 0%
Eos [1]: 0.4%
Fbg [1]: 310.2 mg/dL
Hb [1]: 13.1 g/dL
Ht [1]: 40.6%
Lym [1]: 83.2%
MCH [1]: 20.1 pg
MCHC [1]: 32.2%
MCV [1]: 62.6 fL
Mono [1]: 2%
Neu [1]: 13.6%
PT [1]: 15.9 s
Plat [1]: 113.4 x10_4/uL
RBC [1]: 648.8 x10_4/ul
Ret [1]: 7.3%
WBC [1]: 96 x10_2/uL
KIDNEY_L [1]: 1 g
KIDNEY_R [1]: 1 g
KIDNEY_TOTAL [1]: 1.9 g
LIVER [1]: 10.1 g
A/G [1]: 1.3
ALP [1]: 1543.6 IU/L
ALT [1]: 54.4 IU/L
AST [1]: 78.4 IU/L
BUN [1]: 12.8 mg/dL
CRE [1]: 0.2 mg/dL
Ca [1]: 10.5 mg/dL
Cl [1]: 106.4 meq/L
DBIL [1]: 0 mg/dL
GLC [1]: 182.6 mg/dL
IP [1]: 9.4 mg/dL
K [1]: 4.4 meq/L
LDH [1]: 175.2 IU/L
Na [1]: 141.6 meq/L
PL [1]: 135 mg/dL
RALB [1]: 3.1 g/dL
TBIL [1]: 0.018 mg/dL
TC [1]: 77.2 mg/dL
TG [1]: 61.8 mg/dL
TP [1]: 5.5 g/dL
gamma-GTP [1]: 1.2 IU/L
TERMINAL_BW [2]: 209 g
APTT [2]: 21.2 s
Bas [2]: 0%
Eos [2]: 0.8%
Fbg [2]: 318.6 mg/dL
Hb [2]: 13.2 g/dL
Ht [2]: 40.5%
Lym [2]: 77.4%
MCH [2]: 20.4 pg
MCHC [2]: 32.6%
MCV [2]: 62.6 fL
Mono [2]: 2.4%
Neu [2]: 19%
PT [2]: 16.1 s
Plat [2]: 120.4 x10_4/uL
RBC [2]: 647 x10_4/ul
Ret [2]: 6.8%
WBC [2]: 69.3 x10_2/uL
KIDNEY_L [2]: 0.9 g
KIDNEY_R [2]: 0.9 g
KIDNEY_TOTAL [2]: 1.9 g
LIVER [2]: 9 g
A/G [2]: 1.2
ALP [2]: 1633.4 IU/L
ALT [2]: 43.8 IU/L
AST [2]: 73.4 IU/L
BUN [2]: 9.8 mg/dL
CRE [2]: 0.2 mg/dL
Ca [2]: 10.6 mg/dL
Cl [2]: 107.4 meq/L
DBIL [2]: 0 mg/dL
GLC [2]: 184.6 mg/dL
IP [2]: 8.6 mg/dL
K [2]: 4.1 meq/L
LDH [2]: 179.2 IU/L
Na [2]: 142 meq/L
PL [2]: 124.6 mg/dL
RALB [2]: 3.1 g/dL
TBIL [2]: 0.03 mg/dL
TC [2]: 68.6 mg/dL
TG [2]: 48.6 mg/dL
TP [2]: 5.7 g/dL
gamma-GTP [2]: 1.2 IU/L
TERMINAL_BW [3]: 219.2 g
APTT [3]: 22.9 s
Bas [3]: 0%
Eos [3]: 1%
Fbg [3]: 318.6 mg/dL
Hb [3]: 12.6 g/dL
Ht [3]: 39%
Lym [3]: 78.6%
MCH [3]: 20.2 pg
MCHC [3]: 32.3%
MCV [3]: 62.6 fL
Mono [3]: 2.4%
Neu [3]: 17.2%
PT [3]: 16.3 s
Plat [3]: 120 x10_4/uL
RBC [3]: 624 x10_4/ul
Ret [3]: 7.2%
WBC [3]: 97.2 x10_2/uL
KIDNEY_L [3]: 1 g
KIDNEY_R [3]: 1 g
KIDNEY_TOTAL [3]: 2 g
LIVER [3]: 9.5 g
A/G [3]: 1.2
ALP [3]: 1531 IU/L
ALT [3]: 44.6 IU/L
AST [3]: 71.8 IU/L
BUN [3]: 10.6 mg/dL
CRE [3]: 0.2 mg/dL
Ca [3]: 10.6 mg/dL
Cl [3]: 104.6 meq/L
DBIL [3]: 0 mg/dL
GLC [3]: 188.4 mg/dL
IP [3]: 9 mg/dL
K [3]: 4.3 meq/L
LDH [3]: 143.8 IU/L
Na [3]: 140.2 meq/L
PL [3]: 130.4 mg/dL
RALB [3]: 3 g/dL
TBIL [3]: 0.02 mg/dL
TC [3]: 74 mg/dL
TG [3]: 66.8 mg/dL
TP [3]: 5.4 g/dL
gamma-GTP [3]: 1.2 IU/L
TERMINAL_BW [4]: 231.4 g
APTT [4]: 19.9 s
Bas [4]: 0%
Eos [4]: 0.8%
Fbg [4]: 293.8 mg/dL
Hb [4]: 12.8 g/dL
Ht [4]: 39.5%
Lym [4]: 81%
MCH [4]: 20.6 pg
MCHC [4]: 32.3%
MCV [4]: 63.8 fL
Mono [4]: 2.4%
Neu [4]: 15.2%
PT [4]: 15.9 s
Plat [4]: 117.4 x10_4/uL
RBC [4]: 619.8 x10_4/ul
Ret [4]: 7.6%
WBC [4]: 86.1 x10_2/uL
KIDNEY_L [4]: 1 g
KIDNEY_R [4]: 1 g
KIDNEY_TOTAL [4]: 2 g
LIVER [4]: 10.8 g
A/G [4]: 1.3
ALP [4]: 1779.4 IU/L
ALT [4]: 50 IU/L
AST [4]: 75 IU/L
BUN [4]: 17.2 mg/dL
CRE [4]: 0.2 mg/dL
Ca [4]: 10.7 mg/dL
Cl [4]: 106.2 meq/L
DBIL [4]: 0 mg/dL
GLC [4]: 188.6 mg/dL
IP [4]: 7.6 mg/dL
K [4]: 4.2 meq/L
LDH [4]: 205 IU/L
Na [4]: 141.4 meq/L
PL [4]: 148.4 mg/dL
RALB [4]: 3.1 g/dL
TBIL [4]: 0.008 mg/dL
TC [4]: 74.2 mg/dL
TG [4]: 150.8 mg/dL
TP [4]: 5.6 g/dL
gamma-GTP [4]: 1.6 IU/L
TERMINAL_BW [5]: 221.2 g
APTT [5]: 21.7 s
Bas [5]: 0%
Eos [5]: 1%
Fbg [5]: 292.2 mg/dL
Hb [5]: 12.9 g/dL
Ht [5]: 39.9%
Lym [5]: 75.8%
MCH [5]: 20.5 pg
MCHC [5]: 32.4%
MCV [5]: 63.2 fL
Mono [5]: 2.4%
Neu [5]: 20.6%
PT [5]: 16.5 s
Plat [5]: 108.6 x10_4/uL
RBC [5]: 632.4 x10_4/ul
Ret [5]: 7.4%
WBC [5]: 62.3 x10_2/uL
KIDNEY_L [5]: 1 g
KIDNEY_R [5]: 1.1 g
KIDNEY_TOTAL [5]: 2.1 g
LIVER [5]: 9.9 g
A/G [5]: 1.3
ALP [5]: 1366.2 IU/L
ALT [5]: 58.8 IU/L
AST [5]: 87.6 IU/L
BUN [5]: 12.2 mg/dL
CRE [5]: 0.1 mg/dL
Ca [5]: 10.4 mg/dL
Cl [5]: 106 meq/L
DBIL [5]: 0 mg/dL
GLC [5]: 174.4 mg/dL
IP [5]: 9.6 mg/dL
K [5]: 4 meq/L
LDH [5]: 168 IU/L
Na [5]: 141 meq/L
PL [5]: 122.6 mg/dL
RALB [5]: 3 g/dL
TBIL [5]: 0.028 mg/dL
TC [5]: 72.6 mg/dL
TG [5]: 46 mg/dL
TP [5]: 5.4 g/dL
gamma-GTP [5]: 1 IU/L
TERMINAL_BW [6]: 214.8 g
APTT [6]: 21.8 s
Bas [6]: 0%
Eos [6]: 0.6%
Fbg [6]: 411.6 mg/dL
Hb [6]: 13.6 g/dL
Ht [6]: 42.2%
Lym [6]: 71.2%
MCH [6]: 20.7 pg
MCHC [6]: 32.4%
MCV [6]: 64 fL
Mono [6]: 2%
Neu [6]: 25%
PT [6]: 16.1 s
Plat [6]: 109.7 x10_4/uL
RBC [6]: 660.2 x10_4/ul
Ret [6]: 7.1%
WBC [6]: 71.5 x10_2/uL
KIDNEY_L [6]: 0.9 g
KIDNEY_R [6]: 0.9 g
KIDNEY_TOTAL [6]: 1.9 g
LIVER [6]: 9.6 g
A/G [6]: 1.2
ALP [6]: 1714.4 IU/L
ALT [6]: 52 IU/L
AST [6]: 84.2 IU/L
BUN [6]: 10.2 mg/dL
CRE [6]: 0.2 mg/dL
Ca [6]: 10.3 mg/dL
Cl [6]: 107.2 meq/L
DBIL [6]: 0 mg/dL
GLC [6]: 186.8 mg/dL
IP [6]: 8.5 mg/dL
K [6]: 4.2 meq/L
LDH [6]: 190.4 IU/L
Na [6]: 141.8 meq/L
PL [6]: 133.2 mg/dL
RALB [6]: 3 g/dL
TBIL [6]: 0.02 mg/dL
TC [6]: 80.4 mg/dL
TG [6]: 34.8 mg/dL
TP [6]: 5.7 g/dL
gamma-GTP [6]: 1.6 IU/L
TERMINAL_BW [7]: 217.6 g
APTT [7]: 23.3 s
Bas [7]: 0%
Eos [7]: 0.8%
Fbg [7]: 309.4 mg/dL
Hb [7]: 12.7 g/dL
Ht [7]: 39.4%
Lym [7]: 72.8%
MCH [7]: 20.3 pg
MCHC [7]: 32.2%
MCV [7]: 63 fL
Mono [7]: 2.6%
Neu [7]: 23%
PT [7]: 16.1 s
Plat [7]: 109.3 x10_4/uL
RBC [7]: 626.4 x10_4/ul
Ret [7]: 7.6%
WBC [7]: 76 x10_2/uL
KIDNEY_L [7]: 1 g
KIDNEY_R [7]: 1 g
KIDNEY_TOTAL [7]: 2 g
LIVER [7]: 9.5 g
A/G [7]: 1.3
ALP [7]: 1243.2 IU/L
ALT [7]: 42.8 IU/L
AST [7]: 65 IU/L
BUN [7]: 8.6 mg/dL
CRE [7]: 0.1 mg/dL
Ca [7]: 10.3 mg/dL
Cl [7]: 107.2 meq/L
DBIL [7]: 0 mg/dL
GLC [7]: 186 mg/dL
IP [7]: 9.1 mg/dL
K [7]: 4.2 meq/L
LDH [7]: 146.4 IU/L
Na [7]: 141.4 meq/L
PL [7]: 144.8 mg/dL
RALB [7]: 3 g/dL
TBIL [7]: 0.026 mg/dL
TC [7]: 81.4 mg/dL
TG [7]: 45.4 mg/dL
TP [7]: 5.4 g/dL
gamma-GTP [7]: 1.4 IU/L
TERMINAL_BW [8]: 225.6 g
APTT [8]: 20.4 s
Bas [8]: 0%
Eos [8]: 1%
Fbg [8]: 313.6 mg/dL
Hb [8]: 13.4 g/dL
Ht [8]: 41%
Lym [8]: 80%
MCH [8]: 20.5 pg
MCHC [8]: 32.8%
MCV [8]: 62.5 fL
Mono [8]: 2.6%
Neu [8]: 15.6%
PT [8]: 16.3 s
Plat [8]: 106 x10_4/uL
RBC [8]: 656.8 x10_4/ul
Ret [8]: 7.1%
WBC [8]: 76.9 x10_2/uL
KIDNEY_L [8]: 1 g
KIDNEY_R [8]: 1 g
KIDNEY_TOTAL [8]: 2 g
LIVER [8]: 10.5 g
A/G [8]: 1.2
ALP [8]: 1526.6 IU/L
ALT [8]: 50.2 IU/L
AST [8]: 71.4 IU/L
BUN [8]: 14.6 mg/dL
CRE [8]: 0.2 mg/dL
Ca [8]: 10.6 mg/dL
Cl [8]: 105 meq/L
DBIL [8]: 0 mg/dL
GLC [8]: 182.2 mg/dL
IP [8]: 8.2 mg/dL
K [8]: 4.2 meq/L
LDH [8]: 170.6 IU/L
Na [8]: 142.6 meq/L
PL [8]: 163 mg/dL
RALB [8]: 3.1 g/dL
TBIL [8]: 0.004 mg/dL
TC [8]: 89 mg/dL
TG [8]: 120.2 mg/dL
TP [8]: 5.6 g/dL
gamma-GTP [8]: 1.6 IU/L
